Data published in patent publication US20150050240A1, “TREATMENT OF FIBROSIS” (NOVARTIS AG, priority 2012, published 2015).

Legend:
[1] = tested on: lung fibroblasts from IPF patients; conditions: cited from earlier work
[2] = cited from earlier work
[3] = tested on: β-catenin; test: Western blots for p-Ser552 β-catenin and total β-catenin from HLFs; assay type: cell-based, human; conditions: HLFs stimulated with TGFβ; FIG. 4A
Method: (§1) HLFs, IPF donor cells, A549 cells lysates or lung tissue lysates were prepared in RIPA buffer. The patient lung biopsies study utilized biological specimens and data provided by the Lung Tissue Research Consortium (LTRC) supported by the National Heart, Lung, and Blood Institute (NHLBI). For Western blots, 1:1000-diluted mouse-anti-N-Cadherin (BD Biosciences), rabbit-anti-OB-Cadherin (Santa Cruz), mouse-anti-SMA (Sigma), mouse-anti-vimetin (DACO), mouse-anti-E-Cadherin (Abram), rabbit-anti-β-catenin (Cell Signaling Technology), anti-rabbit-p-[…]-β-catenin (Cell Signaling Technology), rabbit-anti-β-actin (Santa Cruz) and mouse-anti-GAPDH (Santa Cruz) were used in combination with HRP-conjugated secondary antibodies (GE Healthcare). Western blots were developed using an ECL system (GE Healthcare). Quantification of the intensity of the bands was performed using NIH ImageJ software.
To assess the regulation of β-catenin in response to a fibrotic stimulus in HLFs, cells were stimulated with TGFβ and the expression levels and phosphorylation state of β-catenin were assessed by Western blot (FIG. 4A). There was no difference in the expression levels of total β-catenin in TGFβ-stimulated cells. However, when the cell lysates were probed with a phospho-specific β-catenin antibody, we found an increase in the phosphorylation of Ser552 upon TGFβ treatment. […]

[4] = tested on: primary human lung fibroblasts (HLFs); test: Fibroblast-to-myofibroblast transition (FMT), western blot for SMA; assay type: cell-based
Method: Primary human lung fibroblasts (Promocell) were maintained in DMEM supplemented with 10% heat-inactivated FBS, 1 mM Na-pyruvate and 1% Penicillin/Streptomycin and trypsinised every 4 days. Sub-confluent HLFs were electroporated via nucleofection (Amaxa electroporation system) with siRNAs.
as §1
To assess functional responses, non-transfected HLFs or HLFs transfected with siRNAs were plated in full growth medium and left to grow overnight, starved for 24 h in serum-free medium and stimulated with different growth factors for a further 24 h. For FMT assessment, the HLF cells were stimulated with 5 ng/ml TGFβ (R&D Systems) or 10 μg/ml human N-Cadherin-Fc (R&D Systems), for collagen secretion—with 1 ng/ml TGFβ, for proliferation—with FBS, 10 ng/ml PDGF-BB (R&D Systems) or 10 ng/ml FGF-2 (R&D Systems) and for migration—with 10 μg/ml human N-Cadherin-Fc (R&D Systems) or human OB-Cadherin-Fc (R&D Systems). […] The level of FMT was evaluated by western blot for SMA. Collagen secretion was measured by Sircol collagen assay (Biocolor Life Science). Proliferation assay was performed using the DELFIA system (PerkinElmer), and migration was assessed with the Oris System (Platypus Technology).

[5] = tested on: OB-Cadherin; test: OB-Cadherin expression in HLFs (RT-PCR, western blot); assay type: cell-based, human; conditions: TGFβ treatment of HLFs; FIG. 1A
Method: (§2) Total RNA was extracted from HLFs, transcribed into cDNA and used for RT-PCR. Validated Taqman N-Cadherin, OB-Cadherin, vimentin or E-Cadherin primers and probes were purchased from Applied Biosystems.
(§3) Small interfering RNAs against N-Cadehrin and OB-Cadherin were purchased from Applied Biosystems. Knockdown efficiencies were tested by using real-time RT-PCR and confirmed to be 95% at the time of stimulation in the different functional assays.
as §1

[6] = tested on: N-Cadherin; test: N-Cadherin expression in HLFs (RT-PCR, western blot); assay type: cell-based, human; conditions: TGFβ treatment, low and high cell density; FIG. 1A
Method: as §2, §3, §1

[7] = cited from earlier work; remark: listed apart in the source
[8] = tested on: primary human lung fibroblasts (HLFs); test: HLF migration, in vitro wound closure assay (Oris System); assay type: cell-based; conditions: 10 μg/ml N-Cadherin-Fc; FIG. 3A
Method: To assess functional responses, non-transfected HLFs or HLFs transfected with siRNAs were plated in full growth medium and left to grow overnight, starved for 24 h in serum-free medium and stimulated with different growth factors for a further 24 h. For FMT assessment, the HLF cells were stimulated with 5 ng/ml TGFβ (R&D Systems) or 10 μg/ml human N-Cadherin-Fc (R&D Systems), for collagen secretion—with 1 ng/ml TGFβ, for proliferation—with FBS, 10 ng/ml PDGF-BB (R&D Systems) or 10 ng/ml FGF-2 (R&D Systems) and for migration—with 10 μg/ml human N-Cadherin-Fc (R&D Systems) or human OB-Cadherin-Fc (R&D Systems). In the loss of function FMT experiment, 50 μg/ml N-Cadherin neutralizing antibody (clone GC-4, Sigma) was used. The level of FMT was evaluated by western blot for SMA. Collagen secretion was measured by Sircol collagen assay (Biocolor Life Science). Proliferation assay was performed using the DELFIA system (PerkinElmer), and migration was assessed with the Oris System (Platypus Technology).
Increased migration is a hallmark of myofibroblasts and is thought to contribute to the pathology of IPF. Therefore, we investigated the effects of N-Cadherin gain- and loss-of function on the migratory potential of HLFs. We performed an in vitro wound closure assay with cells treated with the recombinant N-Cadherin-Fc chimera or with N-Cadherin siRNA.

[9] = tested on: A549 epithelial alveolar type II cells; test: Epithelial-to-mesenchymal transition (EMT) in A549 cells (RT-PCR, western blot, E-Cadherin immunocytochemistry); assay type: cell-based, human; conditions: recombinant N-Cadherin-Fc, immunocytochemistry for E-Cadherin
Method: A549 epithelial alveolar type II cells (ATCC) were maintained in DMEM supplemented with 10% heat-inactivated FBS and 1% Penicillin/Streptomycin and trypsinised every 4 days.
For EMT assessment, A549 cells were simulated with 5 ng/ml TGFβ (R&D Systems), a combination of 5 ng/ml TGFβ (R&D Systems) and 2.5 ng/ml IL-1β (R&D Systems) or N-Cadherin-Fc (R&D Systems). The level of EMT was evaluated either by RT-PCR and Western blot for vimentin and E-Cadheirn or by immunocytochemistry for E-Cadherin. In the loss of function EMT experiment, N-Cadherin neutralizing tool antibody or IgG isotype control were used in the presence of 18 μg/ml N-cadheirn-Fc (R&D Systems).

[10] = phase II trial with IPF patients
[11] = more recent clinical trial, discontinued in 2007

Cc1ccc(=O)n(-c2ccccc2)c1 [Pirfenidone]
collagen synthesis [1]: reduces collagen synthesis | mitogenic effects of pro-fibrotic cytokines [1]: blocks mitogenic effects | chest radiographs [2, 10]: did not improve | pulmonary functional tests [2, 10]: stabilized or improved in some patients | side effects [2, 10]: no severe side effects | survival rates [2, 10]: improved | lung function ([2]; phase III clinical trial, IPF patients): might positively affect lung function

TGFβ: TGFβ (R&D Systems), pro-fibrotic stimulus used to induce FMT
expression levels of total β-catenin [3]: no difference | phosphorylation of Ser552 of β-catenin [3]: increase | SMA expression ([4]; TGFβ stimulation, low and high cell density): marked increase | OB-Cadherin expression [5]: upregulated | N-Cadherin expression [6]: upregulated

interferon
clinical improvement ([7]; IPF patients refractory to corticosteroid or immunosuppressive therapy): showed no improvement | clinical trial outcome [7, 11]: ineffectiveness | patients death rates compared with placebo [7, 11]: slightly increased

B1: N-Cadherin-Fc: human N-Cadherin-Fc fusion protein (R&D Systems) that mimics N-Cadherin homophilic interactions and activates N-Cadherin signalling (protein)
chain: DWVIPPINLPENSRGPFPQELVRIRSDRDKNLSLRYSVTGPGADQPPTGIFIINPISGQLSVTKPLDREQIARFHLRAHAVDINGNQVENPIDIVINVIDMNDNRPEFLHQVWNGTVPEGSKPGTYVMTVTAIDADDPNALNGMLRYRIVSQAPSTPSPNMFTINNETGDIITVAAGLDREKVQQYTLIIQATDMEGNPTYGLSNTATAVITVTDVNDNPPEFTAMTFYGEVPENRVDIIVANLTVTDKDQPHTPAWNAVYRISGGDPTGRFAIQTDPNSNDGLVTVVKPIDFETNRMFVLTVAAENQVPLAKGIQHPPQSTATVSVTVIDVNENPYFAPNPKIIRQEEGLHAGTMLTTFTAQDPDRYMQQNIRYTKLSDPANWLKIDPVNGQITTIAVLDRESPNVKNNIYNATFLASDNGIPPMSGTGTLQIYLLDINDNAPQVLPQEAETCETPDPNSINITALDYDIDPNAGPFAFDLPLSPVTIKRNWTITRLNGDFAQLNLKIKFLEAGIYEVPIIITDSGNPPKSNISILRVKVCQCDSNGDCTDVDRIVGAGLGTGA
modifications: left off: a dimerising Fc or GST
HLF migration into the wound [8]: significant increase | SMA expression ([4]; HLFs treated with 10 μg/ml N-Cadherin-Fc for 24 h, FIG. 2A): significant increase | additive or synergistic effect on SMA expression ([4]; combination of TGFβ and N-Cadherin-Fc, 24 h): did not observe an additive or synergistic effect | EMT, measured by decreased E-Cadherin signal [9]: significant EMT
